Laboratory results from the supplement of paper PMC10307832.

Key:
Experiment in all cases: relative viability (nuclei count vs DMSO), 5 days (fraction); higher = more cells survive
Crenolanib + Foretinib = compound: CC1(COc2ccc3c(c2)ncn3-c2ccc3cccc(N4CCC(N)CC4)c3n2)COC1 [Crenolanib] + COc1cc2c(Oc3ccc(NC(=O)C4(C(=O)Nc5ccc(F)cc5)CC4)cc3F)ccnc2cc1OCCCN1CCOCC1 [Foretinib] (partner 0.25 µM)
How it was run: (§1)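 Dosing by pin tool came one day after lung cancer cell lines were seeded in 1536-well plates, using either one drug or a fixed anchor-drug dose plus five library-drug doses (not always all listed) in √10 steps. After 5 days, nuclei were counted on 4× images. Relative viability is treated-well nuclei count divided by vehicle-well nuclei count, and values are medians of duplicate plates.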

Crenolanib + Decitabine = compound: CC1(COc2ccc3c(c2)ncn3-c2ccc3cccc(N4CCC(N)CC4)c3n2)COC1 [Crenolanib] + Nc1ncn([C@H]2C[C@H](O)[C@@H](CO)O2)c(=O)n1 [Decitabine] (partner 2 µM)
How it was run: as §1

Tivantinib + Navitoclax = compound: O=C1NC(=O)[C@@H](c2cn3c4c(cccc24)CCC3)[C@@H]1c1c[nH]c2ccccc12 [Tivantinib] + CC1(C)CCC(c2ccc(Cl)cc2)=C(CN2CCN(c3ccc(C(=O)NS(=O)(=O)c4ccc(N[C@H](CCN5CCOCC5)CSc5ccccc5)c(S(=O)(=O)C(F)(F)F)c4)cc3)CC2)C1 [Navitoclax] (partner 0.5 µM)
How it was run: as §1

Tivantinib + Decitabine = compound: O=C1NC(=O)[C@@H](c2cn3c4c(cccc24)CCC3)[C@@H]1c1c[nH]c2ccccc12 [Tivantinib] + Nc1ncn([C@H]2C[C@H](O)[C@@H](CO)O2)c(=O)n1 [Decitabine] (partner 2 µM)
How it was run: as §1

| Cell Line | relative viability (Crenolanib + Foretinib; first compound 0.01 µM) | relative viability (Crenolanib + Foretinib; first compound 0.03162 µM) | relative viability (Crenolanib + Foretinib; first compound 0.1 µM) | relative viability (Crenolanib + Foretinib; first compound 0.3162 µM) | relative viability (Crenolanib + Foretinib; first compound 1 µM) | relative viability (Crenolanib + Decitabine; first compound 0.01 µM) | relative viability (Crenolanib + Decitabine; first compound 0.03162 µM) | relative viability (Crenolanib + Decitabine; first compound 0.1 µM) | relative viability (Crenolanib + Decitabine; first compound 0.3162 µM) | relative viability (Crenolanib + Decitabine; first compound 1 µM) | relative viability (Tivantinib + Navitoclax; first compound 0.01 µM) | relative viability (Tivantinib + Navitoclax; first compound 0.03162 µM) | relative viability (Tivantinib + Navitoclax; first compound 0.1 µM) | relative viability (Tivantinib + Navitoclax; first compound 0.3162 µM) | relative viability (Tivantinib + Decitabine; first compound 0.01 µM) | relative viability (Tivantinib + Decitabine; first compound 0.03162 µM) | relative viability (Tivantinib + Decitabine; first compound 0.1 µM) | relative viability (Tivantinib + Decitabine; first compound 0.3162 µM) |
| --- | --- | --- | --- | --- | --- | --- | --- | --- | --- | --- | --- | --- | --- | --- | --- | --- | --- | --- |
| NCI-H1944 | 0.857 | 0.865 | 0.872 | 0.887 | 0.817 | 0.474 | 0.441 | 0.423 | 0.468 | 0.458 | 0.975 | 0.997 | 0.992 | 0.778 | 0.43 | 0.451 | 0.44 | 0.401 |
| NCI-H1975 | 1.06 | 0.969 | 0.847 | 0.94 | 1.04 | 0.376 | 0.475 | 0.412 | 0.375 | 0.349 | 1.03 | 1.07 | 1.12 | 1.16 | 0.446 | 0.395 | 0.358 | 0.34 |
| NCI-H1993 | 0.768 | 0.551 | 0.719 | 0.889 | 0.731 | 0.578 | 0.629 | 0.615 | 0.62 | 0.651 | 1.04 | 0.929 | 1.06 | 0.681 | 0.59 | 0.503 | 0.506 | 0.539 |
| NCI-H2009 | 1.25 | 1.21 | 1.09 | 1.27 | 1.1 | 0.395 | 0.367 | 0.367 | 0.364 | 0.416 | 1.08 | 1.22 | 1.2 | 1.16 | 0.361 | 0.365 | 0.328 | 0.391 |
| NCI-H2023 | 0.785 | 1.01 | 0.942 | 1.05 | 1.02 | 0.153 | 0.266 | 0.242 | 0.263 | 0.213 | 1.01 | 1 | 0.937 | 1 | 0.24 | 0.218 | 0.212 | 0.221 |
| NCI-H2085 | 1.01 | 0.845 | 0.847 | 1.04 | 1.12 |  | 0.538 | 0.517 | 0.546 | 0.534 | 1.18 | 1.28 | 1.2 | 0.939 | 0.534 | 0.556 | 0.554 | 0.551 |
| NCI-H2087 | 1.23 | 1.32 | 1.1 | 1.27 | 1.27 | 0.267 | 0.341 | 0.427 | 0.303 | 0.335 | 1.14 | 0.981 | 0.972 | 1.03 | 0.326 | 0.311 | 0.21 | 0.196 |
| NCI-H2126 | 1.24 | 1.37 | 0.985 | 1.41 | 1.23 | 0.544 | 0.564 | 0.61 | 0.659 | 0.586 | 0.822 | 0.821 | 0.846 | 0.713 | 0.57 | 0.549 | 0.587 | 0.547 |
| NCI-H2170 | 0.961 | 0.989 | 0.719 | 0.99 | 1.02 | 0.474 | 0.504 | 0.452 | 0.506 | 0.454 | 0.655 | 0.555 | 0.534 |  | 0.47 | 0.48 | 0.486 |  |
| NCI-H2347 | 0.879 | 0.757 |  | 1.02 | 0.901 | 0.657 | 0.611 | 0.605 | 0.674 | 0.6 | 0.868 | 0.718 | 0.678 | 0.755 | 0.699 | 0.592 | 0.623 | 0.629 |
| NCI-H2405 | 1.16 | 1.05 |  | 1.02 | 1.06 | 0.775 |  | 0.671 | 0.781 | 0.686 | 1.17 | 0.766 | 0.973 | 0.305 | 0.754 | 0.789 | 0.73 | 0.79 |
| NCI-H3122 | 0.927 | 0.98 | 0.985 | 0.963 | 1.04 | 0.433 | 0.424 | 0.468 | 0.546 | 0.478 | 1.02 | 0.971 | 0.974 | 1.01 | 0.434 | 0.484 | 0.398 | 0.434 |
| PC-3 [JPC-3] | 1.16 | 1.12 | 0.955 | 1.05 | 1.03 | 0.785 |  | 0.806 | 0.82 | 0.806 | 0.775 | 0.829 | 0.801 | 0.574 | 0.766 | 0.798 | 0.839 | 0.6 |
| PC-14 | 1.01 | 0.904 | 0.952 | 1.06 | 0.933 | 0.167 | 0.195 | 0.212 | 0.21 | 0.226 | 1.05 | 0.926 | 0.981 | 0.947 | 0.238 | 0.234 | 0.223 | 0.142 |
| RERF-LC-KJ | 0.852 | 0.838 | 0.906 | 0.968 | 0.909 | 0.672 | 0.699 | 0.635 | 0.697 | 0.717 | 0.901 | 1.05 | 0.818 | 0.829 | 0.802 | 0.632 | 0.63 | 0.622 |
| SK-LU-1 | 0.802 | 0.779 | 0.538 | 0.964 | 0.905 | 0.666 | 0.703 | 0.533 | 0.66 | 0.653 | 0.864 | 0.783 | 0.941 | 0.733 | 0.711 | 0.679 | 0.593 | 0.555 |
| SK-MES-1 | 1.05 | 0.876 | 0.974 | 0.936 | 1.14 | 0.315 | 0.451 | 0.42 | 0.385 | 0.359 | 1.24 | 1.17 | 1.1 | 0.896 | 0.299 | 0.351 |  | 0.337 |
| SW 1573 | 1.04 | 0.918 | 0.943 | 0.9 | 0.966 | 0.333 | 0.591 | 0.518 | 0.648 | 0.52 | 1.02 | 0.917 | 1.06 | 1.14 | 0.688 | 0.462 | 0.446 | 0.494 |
